Key:
Assay type in all cases: in vivo
[1] = test system: wheat (Wh); experiment: Test Example 3: phytotoxicity to upland crop plants, treatment before emergence; settings: dosage 5 kg/ha
Method in brief: (§1)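 Pre-emergence treatment: a liquid preparation containing a prescribed concentration of test compound was sprayed, and injury to soybean and wheat was assessed 14 days later. Phytotoxicity was judged against a scoring criterion, alongside weed-killing rate.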

[2] = test system: soybean plant (So); experiment: as above; settings: dosage 5 kg/ha
Method in brief: as §1

[3] = test system: barnyard grass (Echinochloa crus-galli Beauv.); experiment: Test Example 1: herbicidal effect on paddy field weeds before emergence; settings: Dosage 5 kg/ha
Method in brief: (§2)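 Seeds of both weeds, still ungerminated, in soil pots held under paddy conditions received a set dose of test solution as soil treatment. After twenty-one days, control relative to untreated pots was calculated and rated on a scoring scale.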

[4] = test system: bulrush (Scirpus juncoides Roxb.); experiment: as above; settings: Dosage 5 kg/ha
Method in brief: as §2

[5] = test system: barnyard grass (Echinochloa crus-galli Beauv.); experiment: Test Example 2: herbicidal effect on paddy field weeds after emergence; settings: Dosage 5 kg/ha; one-leaved stage; 21 days after treatment
Method in brief: (§3)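 Weeds in flooded paddy-soil pots were grown to the one-leaved stage, then the soil was treated with the compound solution at a set dosage.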

[6] = test system: monochoria (Monochoria vaginalis Presl); experiment: as above; settings: Dosage 5 kg/ha; one-leaved stage; 21 days after treatment
Method in brief: as §3

[7] = test system: bulrush (Scirpus juncoides Roxb.); experiment: as above; settings: Dosage 5 kg/ha; one-leaved stage; 21 days after treatment
Method in brief: as §3

[8] = test system: forxtail grass (Alopecurus aequalis var. amurensis Ohwi), Am; experiment: Test Example 4: herbicidal effect on upland weeds after emergence; settings: dosage 5 kg/ha; sprayed after emergence; judged 14 days after treatment
Method in brief: (§4)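 Weeds, soybean and wheat were sown in soil-filled vats, covered with soil and grown to set leaf stages before a post-emergence spray of an agent containing the compound at a prescribed concentration. Weed-killing rate and crop phytotoxicity were assessed 14 days after treatment.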

[9] = test system: bird's eye speedwell (Veronica persica Poir.), Vp; experiment: as above; settings: dosage 5 kg/ha; sprayed after emergence; judged 14 days after treatment
Method in brief: as §4

[10] = test system: barnyard grass (Echinochloa crus-galli Beauv.), Ec; experiment: as above; settings: dosage 5 kg/ha; sprayed after emergence; judged 14 days after treatment
Method in brief: as §4

[11] = test system: velvetleaf (Abutilon theophtasti L.), At; experiment: as above; settings: dosage 5 kg/ha; sprayed after emergence; judged 14 days after treatment
Method in brief: as §4

[12] = test system: cleavers (Galium aparine L.), Ga; experiment: as above; settings: dosage 5 kg/ha; sprayed after emergence; judged 14 days after treatment
Method in brief: as §4

[13] = test system: cocklebur (Xanthium strumarium L.), Xs; experiment: as above; settings: dosage 5 kg/ha; sprayed after emergence; judged 14 days after treatment
Method in brief: as §4

[14] = test system: wheat; experiment: Test Example 4: phytotoxicity to upland crop plants, treatment after emergence; settings: dosage 5 kg/ha, sprayed after emergence, judged 14 days after treatment
Method in brief: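 Upland weeds and crop plants (soybean, wheat) are grown from seed in soil until they reach given leaf stages, then treated by spraying with the compound-containing agent; effects are judged two weeks later.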

[15] = test system: soybean plant; experiment: as above; settings: dosage 5 kg/ha, sprayed after emergence, judged 14 days after treatment
Method in brief: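 Post-emergence foliar spray at a prescribed concentration, applied once the sown weeds and soybean reached defined leaf stages in soil vats; herbicidal effect and soybean injury scored after 14 days.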

[16] = test system: forxtail grass (Alopecurus aequalis var. amurensis Ohwi), Am; experiment: Test Example 3: herbicidal effect on upland weeds before emergence; settings: foxtail grass, dosage 5 kg/ha
Method in brief: (§5)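 Herbicidal activity was rated from kill rate determined 14 days post-spray, the compound having been applied pre-emergence as a liquid agent.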

[17] = test system: bird's eye speedwell (Veronica persica Poir.), Vp; experiment: as above; settings: dosage 5 kg/ha
Method in brief: as §5

[18] = test system: barnyard grass (Echinochloa crus-galli Beauv.), Ec; experiment: as above; settings: dosage 5 kg/ha
Method in brief: as §5

[19] = test system: velvetleaf (Abutilon theophtasti L.), At; experiment: as above; settings: dosage 5 kg/ha
Method in brief: as §5

[20] = test system: cleavers (Galium aparine L.), Ga; experiment: as above; settings: dosage 5 kg/ha
Method in brief: as §5

[21] = test system: cocklebur (Xanthium strumarium L.), Xs; experiment: as above; settings: dosage 5 kg/ha
Method in brief: as §5

With CCCNC(=O)c1nc2ccccc2cc1C(=O)Nc1c(CC)ccc(Cl)c1CC [359-3] the “Phytotoxicity Wh” value [1] was 0 (Crop-killing rate is 0-20% (No Phytotoxicity).), the “Phytotoxicity So” value [2] was 0 (Crop-killing rate is 0-20% (No Phytotoxicity).) and the “Pre-emergence treatment Barnyard grass (herbicidal effect)” value [3] was 5 (Weed-killing rate is 100%.). The “Pre-emergence treatment Bulrush (herbicidal effect)” value [4] was 5 (Weed-killing rate is 100%.), the “Post-emergence treatment Barnyard grass (herbicidal effect)” value [5] was 5 (Weed-killing rate is 100%.) and the “Post-emergence treatment Monochoria (herbicidal effect)” value [6] was 5 (Weed-killing rate is 100%.). The “Post-emergence treatment Bulrush (herbicidal effect)” value [7] was 5 (Weed-killing rate is 100%.), the “Herbicidal effect Am” value [8] was 5 (Weed-killing rate is 100%.) and the “Herbicidal effect Vp” value [9] was 5 (Weed-killing rate is 100%.). For the same molecule, the “Herbicidal effect Ec” value [10] was 5 (Weed-killing rate is 100%.), the “Herbicidal effect At” value [11] was 5 (Weed-killing rate is 100%.) and the “Herbicidal effect Ga” value [12] was 5 (Weed-killing rate is 100%.). For the same molecule, the “Herbicidal effect Xs” value [13] was 5 (Weed-killing rate is 100%.), the “Phytotoxicity Wh” value [14] was 2 (Crop-killing rate is 40-69%.) and the “Phytotoxicity So” value [15] was 3 (Crop-killing rate is 70-89%.). For the same molecule, the “Herbicidal effect Am” value [16] was 5 (Weed-killing rate is 100%.), the “Herbicidal effect Vp” value [17] was 5 (Weed-killing rate is 100%.) and the “Herbicidal effect Ec” value [18] was 5 (Weed-killing rate is 100%.). The “Herbicidal effect At” value [19] was 5 (Weed-killing rate is 100%.), the “Herbicidal effect Ga” value [20] was 5 (Weed-killing rate is 100%.) and the “Herbicidal effect Xs” value [21] was 5 (Weed-killing rate is 100%.).

In the case of CCCNC(=O)c1nc2c(cnn2C)cc1C(=O)Nc1c(CC)ccc(Cl)c1CC [compound 1088], the “Phytotoxicity Wh” value [1] is reported as 5 (Crop-killing rate is 100%.), the “Phytotoxicity So” value [2] is reported as 5 (Crop-killing rate is 100%.) and the “Pre-emergence treatment Barnyard grass (herbicidal effect)” value [3] is reported as 5 (Weed-killing rate is 100%.). For the same molecule, the “Pre-emergence treatment Bulrush (herbicidal effect)” value [4] was 5 (Weed-killing rate is 100%.), the “Post-emergence treatment Barnyard grass (herbicidal effect)” value [5] was 5 (Weed-killing rate is 100%.) and the “Post-emergence treatment Monochoria (herbicidal effect)” value [6] was 5 (Weed-killing rate is 100%.). For the same molecule, the “Post-emergence treatment Bulrush (herbicidal effect)” value [7] was 5 (Weed-killing rate is 100%.), the “Herbicidal effect Am” value [8] was 5 (Weed-killing rate is 100%.) and the “Herbicidal effect Vp” value [9] was 5 (Weed-killing rate is 100%.). The “Herbicidal effect Ec” value [10] was 5 (Weed-killing rate is 100%.), the “Herbicidal effect At” value [11] was 5 (Weed-killing rate is 100%.) and the “Herbicidal effect Ga” value [12] was 5 (Weed-killing rate is 100%.). The “Herbicidal effect Xs” value [13] was 5 (Weed-killing rate is 100%.), the “Phytotoxicity Wh” value [14] was 5 (Crop-killing rate is 100%.) and the “Phytotoxicity So” value [15] was 5 (Crop-killing rate is 100%.). For the same molecule, the “Herbicidal effect Am” value [16] was 5 (Weed-killing rate is 100%.), the “Herbicidal effect Vp” value [17] was 5 (Weed-killing rate is 100%.) and the “Herbicidal effect Ec” value [18] was 5 (Weed-killing rate is 100%.). The “Herbicidal effect At” value [19] was 5 (Weed-killing rate is 100%.), the “Herbicidal effect Ga” value [20] was 5 (Weed-killing rate is 100%.) and the “Herbicidal effect Xs” value [21] was 5 (Weed-killing rate is 100%.).
